# Test results from article PMC7618104, “The GLP-1 analogue, exendin-4, improves bone material properties and strength through a central relay in ovariectomized mice” (American journal of physiology. Endocrinology and metabolism, 2025).
# Tests used:
# [1] = test system: animal models of bone fragility; conditions: subcutaneous, OVX model; cited from earlier work
# Excerpt: These observations formed the basis for investigating the potential utility of a GLP-1r agonist for the management of bone fragility. Ex-4 has already been administered subcutaneously in preclinical models of bone fragility, including the OVX model used in the present study. Previous studies have reported positive effects of Ex-4 that increased bone mineral density, trabecular microstructure and circulating calcitonin leve ...
# [2] = test system: ovariectomized BALB/c mice; assay: microCT cortical bone microstructure, midshaft femur; assay type: in vivo, mouse (BALB/cJRj, female); conditions: 28 days, OVX, n=8
# Description: Eight animals were randomly assigned to each group.
# All animals received intraperitoneal administration of calcein green (10 mg/kg) 10 days and 2 days before sacrifice. Animals were housed in social groups and maintained in a 12 h:12 h light/dark cycle. They had free access to water and food. At necropsy, blood was collected by intracardiac aspiration into EDTA-treated tubes. Blood samples were centrifuged at 13,000 g for 15 min, aliquoted and stored at -80°C until plasma levels of exendin-4 (#EK-070-94, Phoenix pharmaceuticals, Burlingame, CA) and calcitonin (NBP3-06734, Bio-Techne Ltd, Abingdon, UK) were measured according to the manufacturer’s protocol. Plasma levels of the bone remodeling markers C-terminal telopeptide of collagen type I (CTx-I – RatLaps, Immunodiagnostic Systems Ltd, Boldon, UK) and N-terminal propeptide of type I collagen (P1NP - Rat/mouse P1NP, Immunodiagnostic Systems Ltd) were measured according to the manufacturers’ recommendation. Right femurs were wrapped in saline-soaked gauze and frozen at -20°C until use. […]
# MicroCT analyses were performed at the proximal metaphysis of the right tibia and at the mid-diaphysis of the right femur with a Bruker 1272 microtomograph operated at 70 kV, 140 μA, 1000 ms integration time and imaging in ethanol 70. […] The region analyzed (0.5 mm) was centered at the midpoint between the third trochanter and the distal growth plate. […]
substance,measurement,setting,value
exendin-4 [Ex-4],"bone mineral density, trabecular microstructure, calcitonin, osteoclast parameters, bone strength",[1],"increased bone mineral density, trabecular microstructure and circulating calcitonin levels and reduced osteoclast parameters, resulting in greater bone strength"
same,cortical bone microstructure,[2]; icv Ex-4 70 pmol/day,unable to demonstrate significant changes in cortical bone microstructure
same,cortical bone microstructure,[2]; s.c. Ex-4 ~700 pmol/day,did not alter cortical bone microstructure
